Reference: PMC4861610 (Drug Design, Development and Therapy, 2016)

Tests used:
FGFR1 kinase = FGFR1 kinase (Homo sapiens, UniProt P11362); assay: LANCE Ultra TR-FRET kinase assay, FGFR1; assay type: biochemical; settings: for Selectivity ratio: ratio of the second lowest IC50 against the lowest IC50 value among FLT3, FGFR1-3, PDGFR-β, EGFR
FLT3 = biological target: T1, FLT3 (Homo sapiens, UniProt P36888); assay: LANCE Ultra TR-FRET kinase selectivity assay, FLT3; assay type: biochemical
T1 sequence (P36888 27-993): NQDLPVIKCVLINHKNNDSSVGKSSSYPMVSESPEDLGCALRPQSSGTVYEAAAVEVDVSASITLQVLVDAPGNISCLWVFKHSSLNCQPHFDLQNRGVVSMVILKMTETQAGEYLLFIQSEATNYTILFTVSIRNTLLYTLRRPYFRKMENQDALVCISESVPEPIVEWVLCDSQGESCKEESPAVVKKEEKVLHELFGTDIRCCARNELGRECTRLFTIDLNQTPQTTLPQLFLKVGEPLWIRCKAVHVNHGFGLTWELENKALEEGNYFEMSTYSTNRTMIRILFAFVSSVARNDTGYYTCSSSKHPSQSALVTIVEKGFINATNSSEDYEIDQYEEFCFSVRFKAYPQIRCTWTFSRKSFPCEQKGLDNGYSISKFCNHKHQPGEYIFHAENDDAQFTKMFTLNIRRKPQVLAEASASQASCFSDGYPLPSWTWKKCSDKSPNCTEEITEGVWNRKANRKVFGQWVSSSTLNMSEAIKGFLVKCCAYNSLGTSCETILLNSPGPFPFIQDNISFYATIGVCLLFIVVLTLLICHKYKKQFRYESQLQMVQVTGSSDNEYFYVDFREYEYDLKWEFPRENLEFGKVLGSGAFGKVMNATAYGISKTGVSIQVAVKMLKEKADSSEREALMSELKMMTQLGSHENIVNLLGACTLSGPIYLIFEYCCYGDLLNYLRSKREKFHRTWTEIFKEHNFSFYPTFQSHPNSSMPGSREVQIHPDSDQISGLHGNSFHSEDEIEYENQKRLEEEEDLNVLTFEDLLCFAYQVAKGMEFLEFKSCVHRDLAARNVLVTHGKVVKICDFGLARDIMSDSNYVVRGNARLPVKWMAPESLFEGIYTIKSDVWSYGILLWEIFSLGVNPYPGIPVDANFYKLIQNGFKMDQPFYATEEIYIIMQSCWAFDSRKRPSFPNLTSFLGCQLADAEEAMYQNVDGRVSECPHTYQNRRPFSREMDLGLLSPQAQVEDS

FGFR2 = FGFR2 (Homo sapiens, UniProt P21802); assay: LANCE Ultra TR-FRET kinase selectivity assay, FGFR2; assay type: biochemical
Chain of FGFR2 (P21802 22-821, species assumed): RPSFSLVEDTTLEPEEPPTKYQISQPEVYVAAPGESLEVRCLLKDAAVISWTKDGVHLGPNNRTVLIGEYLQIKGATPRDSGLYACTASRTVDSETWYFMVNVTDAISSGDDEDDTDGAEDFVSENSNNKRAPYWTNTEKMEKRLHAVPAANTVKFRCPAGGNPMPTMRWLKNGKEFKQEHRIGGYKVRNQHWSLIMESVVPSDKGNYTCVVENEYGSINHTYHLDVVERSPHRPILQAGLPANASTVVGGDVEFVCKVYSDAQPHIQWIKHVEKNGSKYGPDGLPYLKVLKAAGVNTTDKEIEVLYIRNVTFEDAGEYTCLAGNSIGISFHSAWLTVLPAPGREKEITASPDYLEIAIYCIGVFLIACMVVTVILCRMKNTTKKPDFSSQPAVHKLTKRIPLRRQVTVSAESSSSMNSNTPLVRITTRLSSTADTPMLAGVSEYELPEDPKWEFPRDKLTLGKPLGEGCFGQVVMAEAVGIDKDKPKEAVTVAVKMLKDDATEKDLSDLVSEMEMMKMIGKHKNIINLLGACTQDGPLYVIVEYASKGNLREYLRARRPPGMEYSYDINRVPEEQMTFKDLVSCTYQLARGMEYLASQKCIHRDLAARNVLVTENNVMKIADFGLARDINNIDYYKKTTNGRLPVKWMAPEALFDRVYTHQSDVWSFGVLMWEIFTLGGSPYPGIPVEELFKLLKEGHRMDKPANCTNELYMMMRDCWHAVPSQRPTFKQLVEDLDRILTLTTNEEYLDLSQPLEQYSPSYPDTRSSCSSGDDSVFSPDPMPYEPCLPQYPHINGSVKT

FGFR3 = FGFR3 (Homo sapiens, UniProt P22607); assay: LANCE Ultra TR-FRET kinase selectivity assay, FGFR3; assay type: biochemical
Chain of FGFR3 (P22607 23-806, species assumed): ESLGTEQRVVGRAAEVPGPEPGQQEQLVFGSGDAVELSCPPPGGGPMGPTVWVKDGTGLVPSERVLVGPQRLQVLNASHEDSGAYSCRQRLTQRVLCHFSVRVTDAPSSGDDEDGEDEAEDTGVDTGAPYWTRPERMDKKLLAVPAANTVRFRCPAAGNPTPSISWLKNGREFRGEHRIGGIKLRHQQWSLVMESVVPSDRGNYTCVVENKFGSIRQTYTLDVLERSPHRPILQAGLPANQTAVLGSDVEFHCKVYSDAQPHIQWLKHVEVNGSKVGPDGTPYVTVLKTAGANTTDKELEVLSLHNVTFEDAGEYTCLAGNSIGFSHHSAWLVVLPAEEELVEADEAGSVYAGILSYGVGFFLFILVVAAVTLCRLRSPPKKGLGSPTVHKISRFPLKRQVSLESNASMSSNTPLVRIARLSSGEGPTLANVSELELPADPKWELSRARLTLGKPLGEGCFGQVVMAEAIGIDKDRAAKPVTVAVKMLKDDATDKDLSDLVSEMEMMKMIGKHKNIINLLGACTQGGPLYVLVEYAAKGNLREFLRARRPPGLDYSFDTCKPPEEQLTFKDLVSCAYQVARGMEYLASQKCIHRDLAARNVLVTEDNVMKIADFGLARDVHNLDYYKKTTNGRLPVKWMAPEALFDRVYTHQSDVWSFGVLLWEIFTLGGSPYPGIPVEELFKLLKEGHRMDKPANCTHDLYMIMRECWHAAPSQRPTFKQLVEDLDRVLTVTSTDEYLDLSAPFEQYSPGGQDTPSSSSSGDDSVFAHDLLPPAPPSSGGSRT

PDGFR-β = PDGFR-β (Homo sapiens, UniProt P09619); assay: LANCE Ultra TR-FRET kinase selectivity assay, PDGFR-β; assay type: biochemical
Chain of PDGFR-β (P09619 33-1106, species assumed): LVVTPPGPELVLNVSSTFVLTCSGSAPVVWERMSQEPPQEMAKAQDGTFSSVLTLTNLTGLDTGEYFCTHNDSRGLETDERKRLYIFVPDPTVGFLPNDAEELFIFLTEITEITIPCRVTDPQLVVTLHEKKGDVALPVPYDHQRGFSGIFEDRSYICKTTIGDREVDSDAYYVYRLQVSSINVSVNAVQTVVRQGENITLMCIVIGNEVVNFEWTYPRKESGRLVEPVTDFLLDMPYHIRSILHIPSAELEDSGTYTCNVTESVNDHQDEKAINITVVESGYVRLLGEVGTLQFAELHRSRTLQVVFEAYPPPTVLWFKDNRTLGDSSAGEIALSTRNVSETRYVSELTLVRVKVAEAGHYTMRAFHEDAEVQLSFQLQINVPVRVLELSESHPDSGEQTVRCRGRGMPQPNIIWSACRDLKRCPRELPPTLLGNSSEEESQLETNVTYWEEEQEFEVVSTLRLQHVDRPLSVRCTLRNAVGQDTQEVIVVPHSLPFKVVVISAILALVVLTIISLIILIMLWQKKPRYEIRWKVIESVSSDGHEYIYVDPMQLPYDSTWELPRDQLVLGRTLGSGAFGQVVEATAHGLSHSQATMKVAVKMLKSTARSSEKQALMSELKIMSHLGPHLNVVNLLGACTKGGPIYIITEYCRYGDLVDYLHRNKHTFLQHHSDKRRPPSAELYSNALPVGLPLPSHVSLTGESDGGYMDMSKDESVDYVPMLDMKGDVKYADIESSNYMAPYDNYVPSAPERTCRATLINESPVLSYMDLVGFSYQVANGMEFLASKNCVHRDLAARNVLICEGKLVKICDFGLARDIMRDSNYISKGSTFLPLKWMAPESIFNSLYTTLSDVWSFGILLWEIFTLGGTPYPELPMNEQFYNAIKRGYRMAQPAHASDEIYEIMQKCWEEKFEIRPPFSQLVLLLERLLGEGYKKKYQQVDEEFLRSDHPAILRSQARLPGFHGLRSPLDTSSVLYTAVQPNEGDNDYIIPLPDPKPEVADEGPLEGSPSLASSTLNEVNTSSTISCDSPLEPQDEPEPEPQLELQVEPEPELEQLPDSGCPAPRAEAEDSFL

EGFR = EGFR (Homo sapiens, UniProt P00533); assay: LANCE Ultra TR-FRET kinase selectivity assay, EGFR; assay type: biochemical
Chain of EGFR (P00533 25-1210, species assumed): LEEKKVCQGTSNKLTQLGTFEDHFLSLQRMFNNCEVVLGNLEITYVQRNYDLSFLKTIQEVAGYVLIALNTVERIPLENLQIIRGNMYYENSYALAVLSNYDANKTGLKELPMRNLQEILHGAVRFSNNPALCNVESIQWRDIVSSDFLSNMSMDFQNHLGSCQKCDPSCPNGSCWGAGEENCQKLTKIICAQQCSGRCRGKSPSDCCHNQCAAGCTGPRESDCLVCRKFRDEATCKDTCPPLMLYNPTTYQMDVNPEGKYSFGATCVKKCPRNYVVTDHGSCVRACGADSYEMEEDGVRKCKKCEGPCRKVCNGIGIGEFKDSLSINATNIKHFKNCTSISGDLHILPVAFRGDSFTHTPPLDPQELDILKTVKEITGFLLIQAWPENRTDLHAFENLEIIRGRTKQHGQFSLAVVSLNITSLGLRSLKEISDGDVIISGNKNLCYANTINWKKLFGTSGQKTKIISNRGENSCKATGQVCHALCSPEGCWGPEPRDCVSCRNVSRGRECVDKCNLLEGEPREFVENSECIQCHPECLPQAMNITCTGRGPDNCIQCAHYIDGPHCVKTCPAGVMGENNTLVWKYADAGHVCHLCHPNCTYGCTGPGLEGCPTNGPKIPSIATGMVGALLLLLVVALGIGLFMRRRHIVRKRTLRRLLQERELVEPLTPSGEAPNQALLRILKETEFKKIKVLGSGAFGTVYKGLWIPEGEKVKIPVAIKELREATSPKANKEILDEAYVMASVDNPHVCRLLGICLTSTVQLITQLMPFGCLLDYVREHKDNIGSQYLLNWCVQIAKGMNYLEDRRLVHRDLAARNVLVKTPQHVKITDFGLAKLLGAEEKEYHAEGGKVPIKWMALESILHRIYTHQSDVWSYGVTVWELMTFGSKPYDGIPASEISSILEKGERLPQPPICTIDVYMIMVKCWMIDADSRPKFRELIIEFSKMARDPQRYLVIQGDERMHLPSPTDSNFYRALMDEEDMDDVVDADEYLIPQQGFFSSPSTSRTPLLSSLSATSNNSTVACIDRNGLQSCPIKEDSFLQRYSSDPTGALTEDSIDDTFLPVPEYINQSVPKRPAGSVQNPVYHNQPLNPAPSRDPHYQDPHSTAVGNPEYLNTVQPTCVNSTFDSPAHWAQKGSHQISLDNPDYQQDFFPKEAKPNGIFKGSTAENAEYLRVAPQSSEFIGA

[1] = MTT cytotoxicity assay, normal liver HL7702 cells; assay type: cell-based, human; settings: human, HL7702 normal liver cells
HL7702 cells = assay: MTT cytotoxicity assay, normal liver HL7702 cells; assay type: cell-based, human; settings: 2 and 10 µM, Figure 5A and B

Chain of FGFR1 kinase (P11362 478-767 limits assumed): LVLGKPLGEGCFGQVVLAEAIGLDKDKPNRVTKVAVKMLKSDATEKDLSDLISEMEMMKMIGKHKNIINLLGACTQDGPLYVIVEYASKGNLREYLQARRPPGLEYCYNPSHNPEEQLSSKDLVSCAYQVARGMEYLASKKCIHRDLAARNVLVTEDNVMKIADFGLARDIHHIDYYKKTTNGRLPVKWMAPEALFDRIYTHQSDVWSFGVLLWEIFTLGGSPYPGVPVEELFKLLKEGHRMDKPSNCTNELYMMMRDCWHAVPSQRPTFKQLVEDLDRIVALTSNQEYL

O=c1[nH]c2ccccc2nc1/C=C/c1ccccc1 [A1, (E)-1,2-Dihydro-3-(2-phenylethenyl) quinoxalin-2-one]
IC50 (FGFR1 kinase): 23.2 ± 1.12 µM
Selectivity ratio (FGFR1 kinase): 3.86
IC50 (FLT3): > 100 µM
IC50 (FGFR2): > 100 µM
IC50 (FGFR3): 89.6 ± 3.32 µM
IC50 (PDGFR-β): > 100 µM
IC50 (EGFR): > 100 µM
IC50 at 72 h [1]: > 100 µM

O=c1[nH]c2ccccc2nc1/C=C/c1ccccc1Cl [A2, (E)-1,2-Dihydro-3-[2-(2-chlorophenyl)ethenyl]-quinoxalin-2-one]
IC50 (FGFR1 kinase): 21.5 ± 2.24 µM
Selectivity ratio (FGFR1 kinase): 2.57
IC50 (FLT3): > 100 µM
IC50 (FGFR2): > 100 µM
IC50 (FGFR3): 75.1 ± 2.56 µM
IC50 (PDGFR-β): 55.4 ± 1.72 µM
IC50 (EGFR): > 100 µM
IC50 at 72 h [1]: 41.5 ± 7.56 µM

Oc1nc2ccccc2nc1/C=C/c1ccc(F)cc1 [A4, (E)-3-[2-(4-Fluorophenyl)ethenyl]-1,2-dihydro-quinoxalin-2-one]
IC50 at 72 h [1]: 67.9 ± 1.94 µM

O=c1[nH]c2ccccc2nc1/C=C/c1ccccn1 [A5, (E)-3-[2-(Pyridine-2-yl)ethenyl]-1,2-dihydro-quinoxalin-2-one]
inhibition ratio of FGFR1 (FGFR1 kinase; at 10.0 µM): 79.33%
IC50 (FLT3): > 100 µM
IC50 (FGFR2): > 100 µM
IC50 (FGFR3): > 100 µM
IC50 (PDGFR-β): > 100 µM
IC50 (EGFR): > 100 µM
IC50 at 72 h [1]: > 100 µM
survival rate of HL7702 cells compared with TKI258 (HL7702 cells): higher survival rate

O=c1[nH]c2ccccc2nc1/C=C/c1ccccc1F [A6, (E)-3-[2-(2-Fluorophenyl)ethenyl]-1,2-dihydro-quinoxalin-2-one]
IC50 at 72 h [1]: > 100 µM

O=c1[nH]c2ccccc2nc1/C=C/c1cccs1 [A7, (E)-3-[2-(Thiophene-2-yl)ethenyl]-1,2-dihydro-quinoxalin-2-one]
IC50 at 72 h [1]: 83.2 ± 8.12 µM

O=c1[nH]c2ccccc2nc1/C=C/c1ccco1 [A8, (E)-3-[2-(Furan-2-yl)ethenyl]-1,2-dihydro-quinoxalin-2-one]
IC50 at 72 h [1]: > 100 µM

COc1cccc(/C=C/c2nc3ccccc3[nH]c2=O)c1OC [A9, (E)-1,2-Dihydro-3-[2-(2,3-dimethoxyphenyl)ethenyl]-quinoxalin-2-one]
IC50 at 72 h [1]: > 100 µM

O=c1[nH]c2ccccc2nc1/C=C/c1ccccc1[N+](=O)[O-] [A10, (E)-1,2-Dihydro-3-[2-(2-nitrophenyl)ethenyl]-quinoxalin-2-one]
IC50 at 72 h [1]: 68.2 ± 5.96 µM

O=c1[nH]c2ccccc2nc1/C=C/c1ccc(C(F)(F)F)cc1 [A11, (E)-1,2-Dihydro-3-[2-(4-trifluoromethylphenyl)ethenyl]-quinoxalin-2-one]
IC50 at 72 h [1]: > 100 µM

O=c1[nH]c2ccccc2nc1/C=C/c1ccc2ccccc2c1 [A13, (E)-1,2-Dihydro-3-[2-(naphth-2-yl)ethenyl]-quinoxalin-2-one]
IC50 at 72 h [1]: > 100 µM

Cn1c(=O)c(/C=C/c2ccccc2)nc2ccccc21 [B1, (E)-1,2-Dihydro-1-methyl-3-(2-phenylethenyl)-quinoxalin-2-one]
IC50 at 72 h [1]: > 100 µM

Cn1c(=O)c(/C=C/c2ccccc2Cl)nc2ccccc21 [B2, (E)-3-[2-(2-Chlorophenyl)ethenyl]-1,2-dihydro-1-methyl-quinoxalin-2-one]
IC50 (FGFR1 kinase): 26.1 ± 1.32 µM
IC50 (FLT3): > 100 µM
IC50 (FGFR2): > 100 µM
IC50 (FGFR3): > 100 µM
IC50 (PDGFR-β): > 100 µM
IC50 (EGFR): > 100 µM
IC50 at 72 h [1]: > 100 µM

Cn1c(=O)c(/C=C/c2ccccc2Br)nc2ccccc21 [B3, (E)-3-[2-(2-Bromophenyl)ethenyl]-1,2-dihydro-1-methyl-quinoxalin-2-one]
IC50 at 72 h [1]: 49 ± 1.31 µM

Cn1c(=O)c(/C=C/c2ccc(F)cc2)nc2ccccc21 [B4, (E)-1,2-Dihydro-3-[2-(4-fluorophenyl)ethenyl]-1-methyl-quinoxalin-2-one]
IC50 at 72 h [1]: > 100 µM

Cn1c(=O)c(/C=C/c2ccccn2)nc2ccccc21 [B5, (E)-3-[2-(Pyridine-2-yl)ethenyl]-1,2-dihydro-1-methyl-quinoxalin-2-one]
IC50 (FLT3): > 100 µM
IC50 (FGFR2): > 100 µM
IC50 (FGFR3): > 100 µM
IC50 (PDGFR-β): 89.5 ± 3.56 µM
IC50 (EGFR): > 100 µM

O=c1c(/C=C/c2ccccc2)nc2ccccc2n1Cc1ccccc1 [C1, (E)-1,2-Dihydro-3-(2-phenylethenyl)-1-phenylmethyl-quinoxalin-2-one]
IC50 at 72 h [1]: > 100 µM

O=c1c(/C=C/c2ccccc2Cl)nc2ccccc2n1Cc1ccccc1 [C2, (E)-3-[2-(2-Chlorophenyl)ethenyl]-1,2-dihydro-1-phenylmethyl-quinoxalin-2-one]
Selectivity ratio (FGFR1 kinase): 3.68
IC50 (FLT3): > 100 µM
IC50 (FGFR2): > 100 µM
IC50 (PDGFR-β): > 100 µM
IC50 (EGFR): > 100 µM
IC50 at 72 h [1]: > 100 µM

O=c1c(/C=C/c2ccccc2Br)nc2ccccc2n1Cc1ccccc1 [C3, (E)-3-[2-(2-Bromophenyl)ethenyl]-1,2-dihydro-1-phenylmethyl-quinoxalin-2-one]
IC50 at 72 h [1]: > 100 µM

O=c1c(/C=C/c2ccccc2F)nc2ccccc2n1Cc1ccccc1 [C4, (E)-3-[2-(2-Fluorophenyl)ethenyl]-1,2-dihydro-1-phenylmethyl-quinoxalin-2-one]
IC50 at 72 h [1]: > 100 µM

O=c1c(/C=C/c2ccccn2)nc2ccccc2n1Cc1ccccc1 [C5, (E)-3-[2-(Pyridine-2-yl)ethenyl]-1,2-dihydro-1-phenylmethyl-quinoxalin-2-one]
IC50 at 72 h [1]: 35.8 ± 2.17 µM

Fc1ccccc1/C=C/c1nc2ccccc2nc1Cl [D1, (E)-2-Chloro-3-[2-(2-fluorophenyl)ethenyl]-quinoxalin]
IC50 at 72 h [1]: 40.2 ± 1.85 µM

CN1CCN(c2nc3ccccc3nc2/C=C/c2ccccc2F)CC1 [D3, (E)-2-(4-Methylpiperazin-1-yl)-3-[2-(2-fluorophenyl)ethenyl]-quinoxalin]
IC50 at 72 h [1]: > 100 µM

CN1CCN(c2ccc3nc(-c4c(N)c5c(F)cccc5[nH]c4=O)[nH]c3c2)CC1 [TKI258, reference compound]
IC50 at 72 h [1]: 32.8 ± 2.38 µM
